Assay results reported in US20130225684A1, “METHODS AND COMPOSITIONS FOR ENHANCEMENT OF VISION PERFORMANCE” (KYOWA HAKKO BIO CO., LTD., priority 2012, published 2013).
Entries after “also recorded” stand apart in the source; their conditions may differ. Where a SMILES comes first, the peptide text is derived from it.

Assays:
[1] = hand-eye reaction time on the Dynavison D2 after a 40 minute basketball game; assay type: in vivo, women (basketball players); conditions: for Visual reaction time: FIG. 2
Description: The purpose of this study was to examine the efficacy of L-alanyl-Lglutamine (AG) ingestion on sports vision, including reaction time. Ten women (21.2±1.6 years; height: 177.8±8.7 cm; body mass:73.5±8.0 kg), all basketball players, volunteered for this study. The study required subjects to first participate in a 40 minute basketball game. During one trial, subjects consumed only water (W), while during the other two trials subjects consumed the AG supplement marketed as Sustamine mixed in water using either a low dose (1 g per 500 ml) (AG1) or high dose (2 g per 500 ml) (AG2) concentration. Other subjects where not allowed to consume water or AG. (DHY) Measurement of hand-eye reaction time was performed on the Dynavison D2 (Dynavision, Ontario Canada). Subjects were required to assume a comfortable athletic stance and stand at a distance from the board where they could easily reach all of the lights. The board height was adjusted so the LCD screen was located just below eye level. Participants were told to fixate their gaze on the LCD screen in the middle of the board and to keep their focus there for the entirety of the experiment. During the assessment each subject pressed a light with their dominant side index finger on the board. When a second light flashed (on the same line of the initial light, but on the non-dominant side of their body), the subject removed their finger and pressed the new visual stimulus. The time necessary to recognize the new stimulus (new light lit until finger lifted from initial light) was recorded as visual reaction time, and the time it took for the subject to move and press the newly lit light was recorded as the motor reaction time. The total time for both visual reaction and motor reaction was calculated as the physical reaction time. A total of eight attempts were performed. The average time for all eight attempts was recorded.

[2] = into alanine and glutamine; cited from earlier work
[3] = alanylglutamine compared to glutamine; cited from earlier work
[4] = alanylglutamine compared to glutamine; cited from earlier work; remark: listed apart in the source

Structure (SMILES) | Visual reaction time ([1]; AG1: low dose (1 g per 500 ml) in water, compared to DHY (no water and no AG), p=0.014) | change in the physical reaction time (combined visual and motor differences) ([1]; AG1: low dose (1 g per 500 ml) in water, compared to DHY, p=0.032) | Visual reaction time ([1]; AG2: high dose (2 g per 500 ml) in water, compared to DHY, p=0.018) | motor response (motor reaction time) ([1]; between trials (AG1, AG2, W, DHY), FIG. 3) | degradation in the body [2] | heat stability [3] | solubility in aqueous solutions [4]
C[C@H](N)C(=O)N[C@@H](CCC(N)=O)C(=O)O [AG, L-alanyl-Lglutamine] (H-Ala-Gln-OH) | significantly better; also recorded: enhanced visual reaction time | significantly greater | trend toward a similar response | no significant differences | immediately degraded | superior | superior
NC(=O)CC[C@H](N)C(=O)O [glutamine, reference compound] |  |  |  |  |  |  | low-solubility
